# Source: PubChem BioAssay (NCI)
#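 Method: 48-hour compound exposure of cells in 96-well plates, five concentrations, linear interpolation of endpoints. TGI is the concentration that stops growth completely.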
# Tests used:
# Assay in all cases: NCI anticancer screen, dose series, 48 h
# [1] = system: MDA-N
# [2] = system: EKVX NSCLC
# [3] = system: OVCAR-3 ovarian
# [4] = system: MALME-3M melanoma
# [5] = system: DU-145 prostate
# [6] = system: NCI-H522 lung
# [7] = system: 786-0 renal
# [8] = system: HS 578T breast
# [9] = system: MOLT-4 leukemia
# [10] = system: SR leukemia
# [11] = system: HT29 colon
# [12] = system: U251 CNS
# [13] = system: NCI-H460 lung
# [14] = system: RXF 393 renal
# [15] = system: SF-539 CNS
# [16] = system: SK-OV-3 ovarian
# [17] = system: LOX IMVI melanoma
# [18] = system: SNB-19 CNS
# [19] = system: PC-3 prostate
# [20] = system: HL-60(TB) leukemia
# [21] = system: NCI-H23 lung
# [22] = system: SW-620 colon
# [23] = system: T-47D breast
# [24] = system: CAKI-1 renal
# [25] = system: K-562 leukemia
# [26] = system: UACC-62 melanoma
# [27] = system: TK-10 renal
# [28] = system: HOP-62 NSCLC
# [29] = system: BT-549 breast
# [30] = system: MCF7 breast
# [31] = system: A549 NSCLC
# [32] = system: MDA-MB-231 breast
# [33] = system: MDA-MB-435
# [34] = system: NCI/ADR-RES ovarian
# [35] = system: UACC-257 melanoma
# [36] = system: SK-MEL-28 melanoma
# [37] = system: RPMI-8226 leukemia
# [38] = system: OVCAR-8 ovarian
# [39] = system: IGROV1 ovarian
# [40] = system: ACHN renal
# [41] = system: HOP-92 NSCLC
# [42] = system: UO-31 renal
# [43] = system: HCT-116 colon
# [44] = system: SF-268 CNS
# [45] = system: SN12C renal
# [46] = system: SK-MEL-2 melanoma
# [47] = system: OVCAR-4 ovarian
# [48] = system: OVCAR-5 ovarian
# [49] = system: KM12 colon
# [50] = system: A498 renal
# [51] = system: CCRF-CEM leukemia
# [52] = system: SF-295 CNS
# [53] = system: M14 melanoma
# [54] = system: HCT-15 colon
# [55] = system: SK-MEL-5 melanoma
# [56] = system: COLO 205 colon
# [57] = system: NCI-H226 lung
# [58] = system: SNB-75 CNS
# [59] = system: HCC-2998 colon
compound,measurement,setting,value
O=P(O)(O)CCP(=O)(O)O,TGI,[1],> 100 µM
same,TGI,[2],> 100 µM
same,TGI,[3],> 100 µM
same,TGI,[4],> 100 µM
same,TGI,[5],> 100 µM
same,TGI,[6],> 100 µM
same,TGI,[7],> 100 µM
same,TGI,[8],> 100 µM
same,TGI,[9],> 100 µM
same,TGI,[10],> 100 µM
same,TGI,[11],> 100 µM
same,TGI,[12],> 100 µM
same,TGI,[13],> 100 µM
same,TGI,[14],> 100 µM
same,TGI,[15],> 100 µM
same,TGI,[16],> 100 µM
same,TGI,[17],> 100 µM
same,TGI,[18],> 100 µM
same,TGI,[19],> 100 µM
same,TGI,[20],> 100 µM
same,TGI,[21],> 100 µM
same,TGI,[22],> 100 µM
same,TGI,[23],> 100 µM
same,TGI,[24],> 100 µM
same,TGI,[25],> 100 µM
same,TGI,[26],> 100 µM
same,TGI,[27],> 100 µM
same,TGI,[28],> 100 µM
same,TGI,[29],> 100 µM
same,TGI,[30],> 100 µM
same,TGI,[31],> 100 µM
same,TGI,[32],> 100 µM
same,TGI,[33],> 100 µM
same,TGI,[34],> 100 µM
same,TGI,[35],> 100 µM
same,TGI,[36],> 100 µM
same,TGI,[37],> 100 µM
same,TGI,[38],> 100 µM
same,TGI,[39],> 100 µM
same,TGI,[40],> 100 µM
same,TGI,[41],> 100 µM
same,TGI,[42],> 100 µM
same,TGI,[43],> 100 µM
same,TGI,[44],> 100 µM
same,TGI,[45],> 100 µM
same,TGI,[46],> 100 µM
same,TGI,[47],> 100 µM
same,TGI,[48],> 100 µM
same,TGI,[49],> 100 µM
same,TGI,[50],> 100 µM
same,TGI,[51],> 100 µM
same,TGI,[52],> 100 µM
same,TGI,[53],> 100 µM
same,TGI,[54],> 100 µM
same,TGI,[55],> 100 µM
same,TGI,[56],> 100 µM
Cc1ccc(C2SCC(=O)N2c2ccc(-n3c(-c4ccccc4)nc4ccccc4c3=O)cc2)cc1 (stereo unspecified),TGI,[1],80 µM
same,TGI,[3],51.9 µM
same,TGI,[4],73 µM
same,TGI,[5],> 100 µM
same,TGI,[6],58.6 µM
same,TGI,[7],74.1 µM
same,TGI,[8],77.9 µM
same,TGI,[9],> 100 µM
same,TGI,[10],> 100 µM
same,TGI,[11],61.1 µM
same,TGI,[12],35 µM
same,TGI,[57],57.3 µM
same,TGI,[13],27.6 µM
same,TGI,[58],90.5 µM
same,TGI,[14],91.3 µM
same,TGI,[15],39.6 µM
same,TGI,[16],40.5 µM
same,TGI,[17],48.5 µM
same,TGI,[18],> 100 µM
same,TGI,[19],55.4 µM
same,TGI,[20],64.4 µM
same,TGI,[21],> 100 µM
same,TGI,[22],> 100 µM
same,TGI,[23],67.3 µM
same,TGI,[24],> 100 µM
same,TGI,[25],> 100 µM
same,TGI,[26],51.5 µM
same,TGI,[27],> 100 µM
same,TGI,[28],53.9 µM
same,TGI,[29],54.7 µM
same,TGI,[30],> 100 µM
same,TGI,[31],> 100 µM
same,TGI,[32],39.6 µM
same,TGI,[33],65.3 µM
same,TGI,[34],63.1 µM
same,TGI,[35],69.8 µM
same,TGI,[36],> 100 µM
same,TGI,[37],55.1 µM
same,TGI,[38],> 100 µM
same,TGI,[59],63.1 µM
same,TGI,[39],90.7 µM
same,TGI,[40],86.4 µM
same,TGI,[41],51.6 µM
same,TGI,[42],59.1 µM
same,TGI,[43],23.1 µM
same,TGI,[44],> 100 µM
same,TGI,[45],> 100 µM
same,TGI,[46],51.3 µM
same,TGI,[47],> 100 µM
same,TGI,[48],> 100 µM
same,TGI,[49],> 100 µM
same,TGI,[50],90.3 µM
same,TGI,[51],> 100 µM
same,TGI,[52],44.7 µM
same,TGI,[53],69.2 µM
same,TGI,[54],52 µM
same,TGI,[55],31.9 µM
same,TGI,[56],> 100 µM
O=C(/C=C/c1ccccc1)CCC1C(=O)c2ccccc2C1=O,TGI,[1],> 100 µM
same,TGI,[2],> 100 µM
same,TGI,[3],> 100 µM
same,TGI,[4],> 100 µM
same,TGI,[5],> 100 µM
same,TGI,[6],> 100 µM
same,TGI,[7],> 100 µM
same,TGI,[8],> 100 µM
same,TGI,[9],> 100 µM
same,TGI,[10],> 100 µM
same,TGI,[11],> 100 µM
same,TGI,[12],> 100 µM
same,TGI,[57],> 100 µM
same,TGI,[13],> 100 µM
same,TGI,[58],> 100 µM
same,TGI,[14],> 100 µM
same,TGI,[15],> 100 µM
same,TGI,[16],> 100 µM
same,TGI,[17],> 100 µM
same,TGI,[18],> 100 µM
same,TGI,[19],> 100 µM
same,TGI,[20],> 100 µM
same,TGI,[21],> 100 µM
same,TGI,[22],> 100 µM
same,TGI,[23],> 100 µM
same,TGI,[24],> 100 µM
same,TGI,[25],> 100 µM
same,TGI,[26],> 100 µM
same,TGI,[29],> 100 µM
same,TGI,[30],> 100 µM
same,TGI,[31],> 100 µM
same,TGI,[32],> 100 µM
same,TGI,[33],> 100 µM
same,TGI,[34],> 100 µM
same,TGI,[35],> 100 µM
same,TGI,[36],> 100 µM
same,TGI,[37],> 100 µM
same,TGI,[38],> 100 µM
same,TGI,[59],> 100 µM
same,TGI,[39],> 100 µM
same,TGI,[40],> 100 µM
same,TGI,[41],> 100 µM
same,TGI,[42],> 100 µM
same,TGI,[43],> 100 µM
same,TGI,[44],> 100 µM
same,TGI,[45],> 100 µM
same,TGI,[46],> 100 µM
same,TGI,[47],> 100 µM
same,TGI,[48],> 100 µM
same,TGI,[49],> 100 µM
same,TGI,[50],> 100 µM
same,TGI,[51],> 100 µM
same,TGI,[52],> 100 µM
same,TGI,[53],> 100 µM
same,TGI,[54],> 100 µM
same,TGI,[55],> 100 µM
same,TGI,[56],> 100 µM
